Data set [1] addresses Transient receptor potential cation channel subfamily V member 4 (Rattus norvegicus, UniProt Q9ERZ8). Nature of the data set: Antagonist activity at rat TRPV4 receptor expressed in HEK293 cells assessed as inhibition of EC80 of 4alpha-PDD-stimulated calcium flux after 10 mins. The data set is classed as cell-based. (In general: Calcium flux is commonly read through the fluorescence of an indicator in the cells.)

Data set [2] deals with Transient receptor potential cation channel subfamily V member 4 (Homo sapiens, UniProt Q9HBA0). Nature of the data set: Antagonist activity at human TRPV4 receptor expressed in HEK293 cells assessed as inhibition of EC80 of 4alpha-PDD-stimulated calcium flux after 10 mins. The data set is classed as cell-based.
Data set [3] can be described thus: Volume of distribution at steady state in Wistar rat at 1.05 mg/kg, iv. As to conditions: in vivo, read-out: Vdss. The data set is classed as ADME, organism-based.
Data set [4] can be described thus: Plasma protein binding in human. The following applies: read-out: PPB (converted). The data set is classed as ADME, cell-free.
Data set [5] can be described thus: Clearance in Wistar rat at 1.05 mg/kg, iv. The data set is classed as ADME, organism-based. As to conditions: in vivo.
A short description of data set [6]: Cmax in Wistar rat at 1.80 mg/kg, po. The data set is classed as ADME, organism-based. The arrangement: dose 1.8 mg/kg, route oral. As to conditions: in vivo, 1.8 mg/kg.
Data set [7] can be described thus: Solubility of the compound at pH 7.4. The data set is classed as physicochemical. The following applies: buffer.
Data set [8] is described as follows: AUC (infinity) in Wistar rat at 1.05 mg/kg, iv. The data set is classed as ADME, organism-based. The arrangement: dose 1.05 mg/kg, route intravenous, time infinity. The following applies: in vivo.
Data set [9] can be described thus: Half life in Wistar rat at 1.05 mg/kg, iv. As to conditions: in vivo. The data set is classed as ADME, organism-based.
Data set [10] in a line: Oral bioavailability in Wistar rat at 1.80 mg/kg. As to conditions: in vivo, 1.8 mg/kg. The data set is classed as ADME, organism-based.
Data set [11] is described as follows: AUC (infinity) in Wistar rat at 1.80 mg/kg, po. The arrangement: dose 1.8 mg/kg, time infinity, route oral. As to conditions: in vivo, 1.8 mg/kg. The data set is classed as ADME, organism-based.
A short description of data set [12]: Plasma protein binding in rat. The data set is classed as ADME, cell-free. As to conditions: read-out: PPB (converted).

Structures are written as SMILES. pIC50: −log10 of the molar value. ≈ marks a conversion by molar mass, not a printed value.

Sequence of Transient receptor potential cation channel subfamily V member 4 (Rattus norvegicus, UniProt Q9ERZ8) (Q9ERZ8 whole entry): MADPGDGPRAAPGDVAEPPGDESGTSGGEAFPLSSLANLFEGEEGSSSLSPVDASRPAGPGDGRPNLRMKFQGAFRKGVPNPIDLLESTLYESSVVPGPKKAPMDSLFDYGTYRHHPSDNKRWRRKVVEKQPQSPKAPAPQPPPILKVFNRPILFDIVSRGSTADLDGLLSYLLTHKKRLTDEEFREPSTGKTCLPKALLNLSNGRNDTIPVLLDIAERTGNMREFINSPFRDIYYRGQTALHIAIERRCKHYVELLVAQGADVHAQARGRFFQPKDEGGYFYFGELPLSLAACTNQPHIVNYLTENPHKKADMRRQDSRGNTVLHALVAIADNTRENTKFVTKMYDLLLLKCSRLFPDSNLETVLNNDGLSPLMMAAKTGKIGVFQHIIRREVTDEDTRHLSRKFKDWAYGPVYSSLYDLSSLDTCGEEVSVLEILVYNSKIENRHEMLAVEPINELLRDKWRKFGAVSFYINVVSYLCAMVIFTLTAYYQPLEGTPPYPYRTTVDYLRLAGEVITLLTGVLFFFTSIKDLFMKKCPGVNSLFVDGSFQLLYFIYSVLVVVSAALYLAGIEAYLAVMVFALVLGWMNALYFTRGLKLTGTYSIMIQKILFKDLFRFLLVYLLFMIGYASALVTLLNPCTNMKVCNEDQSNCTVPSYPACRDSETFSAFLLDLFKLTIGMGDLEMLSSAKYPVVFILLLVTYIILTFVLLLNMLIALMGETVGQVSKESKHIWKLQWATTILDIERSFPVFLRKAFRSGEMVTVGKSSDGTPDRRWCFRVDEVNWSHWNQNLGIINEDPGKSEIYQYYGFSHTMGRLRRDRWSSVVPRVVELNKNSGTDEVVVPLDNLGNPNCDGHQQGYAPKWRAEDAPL
Sequence of Transient receptor potential cation channel subfamily V member 4 (Homo sapiens, UniProt Q9HBA0) (Q9HBA0 whole entry): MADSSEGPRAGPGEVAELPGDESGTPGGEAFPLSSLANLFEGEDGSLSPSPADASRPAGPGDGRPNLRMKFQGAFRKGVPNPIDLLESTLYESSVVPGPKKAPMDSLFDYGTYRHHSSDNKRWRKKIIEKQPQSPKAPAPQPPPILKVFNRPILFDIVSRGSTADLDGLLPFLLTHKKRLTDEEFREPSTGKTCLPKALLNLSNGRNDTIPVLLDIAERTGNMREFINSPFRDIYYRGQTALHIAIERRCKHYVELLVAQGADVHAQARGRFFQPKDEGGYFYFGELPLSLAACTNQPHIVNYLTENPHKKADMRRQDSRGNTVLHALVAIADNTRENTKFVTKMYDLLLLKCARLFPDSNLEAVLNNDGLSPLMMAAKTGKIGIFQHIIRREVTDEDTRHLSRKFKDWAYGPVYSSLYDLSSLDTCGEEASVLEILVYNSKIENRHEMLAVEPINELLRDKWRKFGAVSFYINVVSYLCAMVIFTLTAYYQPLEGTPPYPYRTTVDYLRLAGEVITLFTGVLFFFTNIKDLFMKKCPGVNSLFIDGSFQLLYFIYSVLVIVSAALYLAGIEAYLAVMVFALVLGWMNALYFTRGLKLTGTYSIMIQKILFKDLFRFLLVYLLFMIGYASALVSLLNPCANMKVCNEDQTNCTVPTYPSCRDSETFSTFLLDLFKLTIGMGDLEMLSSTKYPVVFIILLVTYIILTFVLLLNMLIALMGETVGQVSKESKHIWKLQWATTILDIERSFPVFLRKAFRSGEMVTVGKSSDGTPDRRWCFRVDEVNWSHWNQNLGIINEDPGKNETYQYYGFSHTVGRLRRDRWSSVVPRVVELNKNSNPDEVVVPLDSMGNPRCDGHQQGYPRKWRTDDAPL

Usually pIC50 stands for the negative decadic logarithm of the IC50, by convention in mol/L. For `CN(C)S(=O)(=O)c1ccc(NC(=O)c2ccc(C(F)(F)F)cc2)cc1`, the negative-log IC50 (pIC50) in data set [1] is 5.24; in data set [2], 5.37.
Taken in the same sequence, the figures for `CC(C)N1CCN(S(=O)(=O)c2ccc(NC(=O)c3ccc(C(F)(F)F)cc3N)cc2)CC1` were 5.53 and 6.03.
On the same counts, the results for `CC(C)N1CCN(S(=O)(=O)c2ccc(NC(=O)c3ccc(C(C)(C)C)cc3)cc2)CC1` are 5.98 and 6.41.
As usually defined, the clearance is the rate of elimination divided by the concentration. For orientation: Cmax means the highest concentration seen after dosing. By solubility is commonly meant how much of the substance goes into solution per volume. Low values mean a poorly soluble substance, high ones a readily soluble substance. The term AUC(0-inf) denotes the area under the concentration-time curve extrapolated to infinity. The half-life is the time needed for the level to fall by half in the phase considered. A high value points to slow loss. By bioavailability is commonly meant dose-corrected exposure relative to a reference, in per cent. Lower therefore signals little systemic uptake. Take `CC(C)N1CCN(S(=O)(=O)c2ccc(NC(=O)c3ccc(S(F)(F)(F)(F)F)cc3)cc2)CC1`: the negative logarithm of the IC50 (pIC50) in data set [1] is 6.41; in data set [2], 6.59. Further, the Vd in data set [3] turned out to be 2.01 L/kg. Also, the fraction unbound was 0.0008 in [4] and 0.0009 in data set [12]. Moreover, the clearance in [5] was 22.5 mL/min/kg. In data set [6], this compound registered a peak concentration (Cmax) of 143 ng/mL. This compound also came in with a solubility in [7] of 0.15 µM (≈ 0.077 µg/mL). In addition, the AUC(0-inf) in data set [8] is 779 ng·h/mL; in data set [11] it was 303 ng·h/mL. The compound further had a half-life in [9] of 1.03 h. Also, the bioavailability in data set [10] came out at 22.7%.
On to `O=C(Nc1ccc(S(=O)(=O)N2CCN(C3CCCC3)CC2)cc1)c1ccc(C(F)(F)F)cc1`, for which the negative logarithm of the IC50 (pIC50) in [2] was 6.10.
For the compound `CC(C)N1CCN(C(=O)c2ccc(NC(=O)c3ccc(C(F)(F)F)cc3)cc2)CC1`, the pIC50 in data set [1] and in data set [2] was < 5.00 each time.
For `CC(C)N1CCN(S(=O)(=O)c2ccc(NC(=O)c3ccc(-c4ccccn4)cc3)cc2)CC1`, the pIC50 in data set [1] was 5.19; in data set [2], 5.31.
Consider `CC(C)N1CCN(S(=O)(=O)c2ccc(NC(=O)c3ccccc3)cc2)CC1`, for which the values for the negative logarithm of the IC50 (pIC50) in data set [1] and in [2] were 5.37 and 5.07, respectively.
Take `CCN(CC)C1CCN(S(=O)(=O)c2ccc(NC(=O)c3ccc(C(F)(F)F)cc3)cc2)CC1`: the pIC50 in data set [2] is 6.04.
On to `CC(C)N1CCN(S(=O)(=O)c2ccc(NC(=O)c3cccc(C(F)(F)F)c3)cc2)CC1`, for which the negative logarithm of the IC50 (pIC50) in data set [1] was 5.71; in data set [2], 5.66.
On to `CC(C)N1CCN(S(=O)(=O)c2ccc(NS(=O)(=O)c3ccc(C(F)(F)F)cc3)cc2)CC1`, for which the negative logarithm of the IC50 (pIC50) in data set [1] and in data set [2] was < 5.00 each time.
Turning to `CC(C)N1CCN(S(=O)(=O)c2ccc(NC(=O)c3ccc(C(F)(F)F)cc3C(F)(F)F)cc2)CC1`, the figures for the negative-log IC50 (pIC50) in [1] and in [2] were 6.31 and 6.27, respectively.
Consider `CN(C)C1CCN(S(=O)(=O)c2ccc(NC(=O)c3ccc(C(F)(F)F)cc3)cc2)CC1`, for which, in [2], the negative logarithm of the IC50 (pIC50) is 5.68.
On the same count and under the same terms, with `CC(C)N1CCCN(S(=O)(=O)c2ccc(NC(=O)c3ccc(C(F)(F)F)cc3)cc2)CC1` the figure was 5.88.
`CC(C)N1CCN(S(=O)(=O)c2ccc(NC(=O)c3ccc(C(F)(F)F)cc3)cc2)CC1`: the negative logarithm of the IC50 (pIC50) in [1] was 6.03; in data set [2], 6.15.
Take `CC(C)N1CCN(S(=O)(=O)c2ccc(NC(=O)c3ccc(-c4ncccc4Cl)cc3)cc2)CC1`: the values for the pIC50 in data set [1] and in [2] were 5.41 and 6.03, respectively.
`CC(C)N1CCN(S(=O)(=O)c2ccc(NC(=O)c3ccc(C(F)(F)F)cc3F)cc2)CC1`: the negative logarithm of the IC50 (pIC50) is 6.43 in data set [1] and 6.42 in data set [2].
With `CCN(C)C1CCN(S(=O)(=O)c2ccc(NC(=O)c3ccc(C(F)(F)F)cc3)cc2)CC1`, in data set [2], the pIC50 was 5.89.

These data come from ChEMBL document CHEMBL3612012, “Identification of orally-bioavailable antagonists of the TRPV4 ion-channel” (Bioorg Med Chem Lett, 2015).
